Laboratory results reported in patent publication US7390806B2, “Antibiotics containing borinic acid complexes and methods of use” (Anacor Pharmaceuticals, Inc., priority 2002, dated 2008).
In brackets after ≈: the same amount, converted by molar mass. Where two headings read alike, the source gives them in different places.

Experiments:
S. aureus ATCC 29213 = assay: MIC determination, S. aureus ATCC 29213; type: cell-based, Staphylococcus aureus; conditions: for MIC: Staphylococcus aureus, read-out: MIC S. aureus ATCC 29213
E. faecalis ATCC 29212 = assay: MIC determination, E. faecalis ATCC 29212; type: cell-based, Enterococcus faecalis; conditions: for MIC: Enterococcus faecalis, read-out: MIC E. faecalis ATCC 29212
H. influenzae ATCC 49766 = assay: MIC determination, H. influenzae ATCC 49766; type: cell-based, Haemophilus influenzae; conditions: Table 2; for MIC: Haemophilus influenzae, ATCC49766
[1] = test system: S. epidermidis ATCC 12228; assay: MIC determination, S. epidermidis ATCC 12228; type: cell-based, Staphylococcus epidermidis; conditions: for MIC: Staphylococcus epidermidis, read-out: MIC S. epidermidis ATCC 12228
E. faecium CT-26 = assay: MIC determination, E. faecium CT-26; type: cell-based, Enterococcus faecium; conditions: for MIC: Enterococcus faecium, read-out: MIC E. faecium CT-26
S. pneumoniae ATCC 6301 = assay: MIC determination, S. pneumoniae ATCC 6301; type: cell-based, Streptococcus pneumoniae; conditions: for MIC S. pneumonia ATCC 6301: Table 2; for MIC: Streptococcus pneumoniae
M. tuberculosis H37Rv = assay: Anti-mycobacterium in vitro activity, H37Rv; type: cell-based, Mycobacterium tuberculosis; conditions: Mycobacterium tuberculosis, H37RV; Sensitive strain
[2] = test system: M. catarrhalis ATCC 25238; assay: MIC determination, M. catarrhalis ATCC 25238; type: cell-based; conditions: for MIC: Moraxella catarrhalis, ATCC25238, Table 1, read-out: MIC M. catarrhalis ATCC 25238
[3] = ATCC6301, Table 1, read-out: MIC S. pneumoniae ATCC 6301
[4] = ATCC6301, Table 2, read-out: MIC S. pneumonia ATCC 6301

Structure (SMILES)	MIC S. aureus ATCC 29213 (S. aureus ATCC 29213; Table 2) [micrograms per ml]	MIC E. faecalis ATCC 29212 (E. faecalis ATCC 29212; Table 2) [micrograms per ml]	MIC H. influenzae ATCC 49766 (H. influenzae ATCC 49766) [micrograms per ml]	MIC S. epidermidis ATCC 12228 ([1]; Table 2) [micrograms per ml]	MIC E. faecium CT-26 (E. faecium CT-26; Table 2) [micrograms per ml]	MIC (S. aureus ATCC 29213; ATCC29213, Table 2) [µg/mL]	MIC (E. faecalis ATCC 29212; ATCC29212, Table 2) [µg/mL]	MIC (H. influenzae ATCC 49766) [µg/mL]	MIC ([1]; ATCC12228, Table 2) [µg/mL]	MIC (E. faecium CT-26; CT26, Table 2) [µg/mL]	MIC S. pneumonia ATCC 6301 (S. pneumoniae ATCC 6301) [micrograms per ml]	also measured
CC(=O)Oc1ccc[n+]2c1C(=O)O[B-]2(c1ccc(C)c(Cl)c1)c1ccc(C)c(Cl)c1 [Compound 119]	2	2	64	1	2							
O=C(O)c1ncccc1OCCN1CCOCC1 [Compound 108]						0.25 (≈ 0.991 µM)	4 (≈ 15.9 µM)	64 (≈ 254 µM)	4 (≈ 15.9 µM)	2 (≈ 7.93 µM)		
CC1(C)O[B-](c2cccc(Cl)c2)(c2cccc(Cl)c2)[n+]2cccc(O)c21 [Compound 102]	0.5	64	64	1	2						0.25	
O=C(O)c1ncccc1O [Compound 116, 3-hydroxypicolinic acid]	2	4	64	1	4						0.25	
CCc1cc(C(N)=S)ccn1 [Ethionamide]												MIC (M. tuberculosis H37Rv): 1 µg/mL (≈ 6.02 µM)
N[C@@H]1CON=C1O [cycloserine]												MIC (M. tuberculosis H37Rv): 8 µg/mL (≈ 78.4 µM)
CC[C@@H](CO)NCCN[C@@H](CC)CO [Ethambutol]												MIC (M. tuberculosis H37Rv): < 1 µg/mL
O=C(O)c1ncccc1OCCO [Compound 107]						0.125 (≈ 0.682 µM)	16 (≈ 87.4 µM)	32 (≈ 175 µM)	4 (≈ 21.8 µM)	8 (≈ 43.7 µM)		
CC1(C)O[B-](c2ccc(Cl)cc2)(c2ccc(Cl)cc2)[n+]2cccc(O)c21 [Compound 103]	0.25	4	64	0.5	1						0.5	
Cc1cc(Cl)ccc1B(OC(=O)c1ncccc1O)c1ccc(Cl)cc1C [Compound 118, bis(2-methyl-4-chlorophenyl)borinic acid 3-hydroxypicolinate ester]	1	1	16	0.25	1						0.12	
O=C(O)c1ncccc1O [Compound 113, 3-hydroxypicolinic acid]	0.5	2	64	1	64							
Cc1onc(-c2ccccc2Cl)c1C(=O)N[C@@H]1C(=O)N2[C@@H]1SC(C)(C)[C@@H]2C(=O)O [Cloxacillin, reference compound]						0.12 (≈ 0.275 µM)	16 (≈ 36.7 µM)	8 (≈ 18.4 µM)	0.25 (≈ 0.574 µM)	64 (≈ 147 µM)		MIC (S. aureus ATCC 29213; ATCC29213, Table 1): 0.125 µg/mL (≈ 0.287 µM); MIC (E. faecalis ATCC 29212; ATCC29212, Table 1): 16 µg/mL (≈ 36.7 µM); MIC [2]: 1 µg/mL (≈ 2.29 µM); MIC ([1]; ATCC12228, Table 1): 0.25 µg/mL (≈ 0.574 µM); MIC (E. faecium CT-26; CT26, Table 1): 64 µg/mL (≈ 147 µM); MIC (S. pneumoniae ATCC 6301; [3]): 0.125 µg/mL (≈ 0.287 µM); MIC (S. pneumoniae ATCC 6301; [4]): 0.12 µg/mL (≈ 0.275 µM)
[H]/N=C(/N)N[C@H]1[C@H](O)[C@@H](O)[C@H](O[C@@H]2O[C@@H](C)[C@](O)(C=O)[C@H]2O[C@@H]2O[C@@H](CO)[C@H](O)[C@@H](O)[C@@H]2NC)[C@@H](N/C(N)=N\[H])[C@@H]1O [Streptomycin]												MIC (M. tuberculosis H37Rv): < 2 µg/mL
O=C(O)c1ncccc1O [Compound 112, 3-hydroxypicolinic acid]	4	4	64	2	8							
Cc1ccc(B(OC(=O)c2ncccc2O)c2ccc(C)c(Cl)c2)cc1Cl [Compound 111, Bis(3-Chloro-4-methylphenyl)borinic acid 3-hydroxypicolinate ester]	2	2	64	1	2							
Clc1cccc(B(OCCc2c[nH]cn2)c2cccc(Cl)c2)c1 [Compound 121, Bis(3-Chlorophenyl)borinic acid 4-(hydroxyethyl)imidazole ester]	0.125	32	4	4	32						8	
Nc1ccc(O)c(C(=O)O)n1 [Compound 122]						0.25 (≈ 1.62 µM)	32 (≈ 208 µM)	8 (≈ 51.9 µM)	4 (≈ 26 µM)	32 (≈ 208 µM)		MIC (S. pneumoniae ATCC 6301; [4]): 16 µg/mL (≈ 104 µM)
O=C(O)c1cccnc1C(=O)O [Compound 110, 3-carboxypicolinic acid]						0.125 (≈ 0.748 µM)	8 (≈ 47.9 µM)	8 (≈ 47.9 µM)	4 (≈ 23.9 µM)	8 (≈ 47.9 µM)		
C[C@@H](O)[C@H]1C(=O)N2C(C(=O)O)=C(SCCN=CN)C[C@H]12 [Imipenem, reference compound]						0.12 (≈ 0.401 µM)	1 (≈ 3.34 µM)	2 (≈ 6.68 µM)	0.12 (≈ 0.401 µM)	64 (≈ 214 µM)		MIC (S. aureus ATCC 29213; ATCC29213, Table 1): 0.125 µg/mL (≈ 0.418 µM); MIC (E. faecalis ATCC 29212; ATCC29212, Table 1): 1 µg/mL (≈ 3.34 µM); MIC [2]: 0.125 µg/mL (≈ 0.418 µM); MIC ([1]; ATCC12228, Table 1): 0.125 µg/mL (≈ 0.418 µM); MIC (E. faecium CT-26; CT26, Table 1): 64 µg/mL (≈ 214 µM); MIC (S. pneumoniae ATCC 6301; [3]): 0.125 µg/mL (≈ 0.418 µM); MIC (S. pneumoniae ATCC 6301; [4]): < 0.125 µg/mL
OCc1ccccn1 [Compound 105, 2-hydroxymethylpyridine]						0.125 (≈ 1.15 µM)	32 (≈ 293 µM)	4 (≈ 36.7 µM)	4 (≈ 36.7 µM)	32 (≈ 293 µM)		MIC (S. pneumoniae ATCC 6301; [4]): 4 µg/mL (≈ 36.7 µM)
O=C(O)c1ncccc1O [Compound 117, 3-hydroxypicolinic acid]	2	4	16	1	4						0.5	
Cc1ccc([B-]2(c3ccc(C)c(Cl)c3)OC(=O)c3c(OCCCC(=O)O)ccc[n+]32)cc1Cl [Compound 109]	1	32	16	4	16						4	
CC1(C)S[C@@H]2[C@H](NC(=O)Cc3ccccc3)C(=O)N2[C@H]1C(=O)O [Pen G, reference compound]	0.5	1	0.12	16	32						<0.125	MIC S. aureus ATCC 29213 (S. aureus ATCC 29213; Table 1): 0.5 micrograms per ml; MIC E. faecalis ATCC 29212 (E. faecalis ATCC 29212; Table 1): 1 micrograms per ml; MIC M. catarrhalis ATCC 25238 ([2]; Table 1): 0.125 micrograms per ml; MIC S. epidermidis ATCC 12228 ([1]; Table 1): 16 micrograms per ml; MIC E. faecium CT-26 (E. faecium CT-26; Table 1): 32 micrograms per ml; MIC S. pneumoniae ATCC 6301 (S. pneumoniae ATCC 6301; Table 1): 0.125 micrograms per ml
O=C(O)Cc1ccccn1 [Compound 106, 2-pyridylacetic acid]						0.5 (≈ 3.65 µM)	64 (≈ 467 µM)	64 (≈ 467 µM)	4 (≈ 29.2 µM)	64 (≈ 467 µM)		
CO/N=C(\C(=O)N[C@@H]1C(=O)N2C(C(=O)O)=C(CSc3nc(=O)c(=O)[nH]n3C)CS[C@H]12)c1csc(N)n1 [Ceftriaxone, reference compound]						2 (≈ 3.61 µM)	64 (≈ 115 µM)	0.12 (≈ 0.216 µM)	1 (≈ 1.8 µM)	64 (≈ 115 µM)		MIC (S. aureus ATCC 29213; ATCC29213, Table 1): 2 µg/mL (≈ 3.61 µM); MIC (E. faecalis ATCC 29212; ATCC29212, Table 1): 64 µg/mL (≈ 115 µM); MIC [2]: 0.125 µg/mL (≈ 0.225 µM); MIC ([1]; ATCC12228, Table 1): 1 µg/mL (≈ 1.8 µM); MIC (E. faecium CT-26; CT26, Table 1): 64 µg/mL (≈ 115 µM); MIC (S. pneumoniae ATCC 6301; [3]): 0.125 µg/mL (≈ 0.225 µM); MIC (S. pneumoniae ATCC 6301; [4]): < 0.125 µg/mL
O=C(O)c1ncccc1O [Compound 114, 3-hydroxypicolinic acid]	0.125	64	16	8	64							
O=C(O)c1ncccc1O [Compound 115, 3-hydroxypicolinic acid]	2	8	64	2	16						1	
